These results are taken from patent US11208497B2, “Antibodies comprising C-terminal light chain polypeptide extensions and conjugates and methods of use thereof” (ZYMEWORKS INC., priority 2013, dated 2021).

The test system of this assay is CD30 antigen positive Karpas 299 cells. As to the kind of experiment: In vitro cell proliferation assay, Karpas 299 cells (Example 18). In kind it is cell-based.

Substance “B-MCvcPABC-MMAE: Brentuximab (B) without light chain extension conjugated to MCvcPABC-MMAE, DAR 3.5 [reference compound]” came in with an EC50 of 8 pM.
